Consider eight compounds from patent US11952384B2, “Anti-tumor compound and preparation method and use thereof” (DUALITY BIOLOGICS (SUZHOU) CO., LTD., priority 2020, dated 2024).

The test system of one data set is MDA-MB-231 cells. The experiment in a line: Inhibition of in vitro proliferation of tumor cells by compounds (CTG, 6 days). The format is cell-based. Particulars: Homo sapiens, MDA-MB-231, 144 h, read-out: MDA-MB-231 IC50 (nM). The method, then:
To test the inhibitory activity of the pharmaceutical compounds on the in vitro proliferation of NCI-N87, JIMT-1 and MBA-MB-231 tumor cells. The cells were treated with compounds at different concentrations in vitro, and after 6 days of culture, the proliferation of cells was detected using CTG (CellTiter-Glo® Luminescent Cell Viability Assay, Promega, Cat. No. G7558) reagents, and the in vitro activity of the compounds was evaluated according to the IC50 value. • 1. Culturing of cells: NCI-N87/JIMT-1/MBA-MB-231 cells were cultured in RPMI-1640 medium containing 10% FBS. • 2. Preparation of cells: NCI-N87/JIMT-1/MBA-MB-231 cells in logarithmic phase were taken, washed with PBS once, and digested with 2-3 mL of trypsin for 2-3 min. After the cells were digested completely, 10-15 mL of cell culture was added to elute the digested cells. The eluate was centrifuged at 1000 rpm for 5 min, and the supernatant was discarded. The resulting cells were resuspended in 10-20 mL of cell culture to obtain a single cell suspension. • 3. Cell plating: the NCI-N87/JIMT-1/MBA-MB-231 single cell suspension was mixed well and adjusted to a viable cell density of 6×10^4 cells/mL with cell culture. The cell suspension with the adjusted density was mixed well and added to a 96-well cell culture plate at 50 μL/well. The culture plate was incubated in an incubator for 18 h (37° C., 5% CO2). • 4. Preparation of compounds: the compounds were dissolved in DMSO to obtain stock solutions at an initial concentration of 10 mM. There were 8 concentrations in total for the small molecule compounds: 300 nM, 100 nM, 30 nM, 10 nM, 3 nM, 1 nM, 0.3 nM, and 0.1 nM. • 5. Sample adding: the prepared samples to be detected at different concentrations were added to the culture plate, and two duplicate wells were set for each sample. The culture plate was incubated in an incubator for 6 days (37° C., 5% CO2). • 6. Color developing: the 96-well cell culture plate was taken out, added with the CTG reagent at 50 μL/well, and incubated at room temperature for 10 min. • 7. Plate reading: the 96-well cell culture plate was taken out, placed in a microplate reader, and measured for the chemiluminescence using the microplate reader. Data analysis: data were processed and analyzed using Microsoft Excel and Graphpad Prism 5.

A further data set concerns JIMT-1 cells. The description is as above. The format is cell-based. Particulars: Homo sapiens, JIMT-1, 144 h, read-out: JIMT-1 IC50 (nM). The protocol:
(§1) To test the inhibitory activity of the pharmaceutical compounds on the in vitro proliferation of NCI-N87, JIMT-1 and MBA-MB-231 tumor cells. The cells were treated with the compounds at different concentrations in vitro, and after 6 days of culture, the proliferation of cells was detected using the CTG (CellTiter-Glo® Luminescent Cell Viability Assay, Promega, Cat. No. G7558) reagent, and the in vitro activity of the compounds was evaluated according to the IC50 value.
(§2) In the following, the test for the inhibition of the in vitro proliferation of NCI-N87 cells was taken as an example to illustrate the method of the present application for testing the inhibitory activity of the compounds of the present application on the in vitro proliferation of tumor cells. The method was also applicable to, but not limited to, the test for the inhibitory activity on the in vitro proliferation of other tumor cells. • 1. Culturing of cells: NCI-N87 cells were cultured in RPMI-1640 medium containing 10% FBS. • 2. Preparation of cells: NCI-N87 cells in logarithmic phase were taken, washed with PBS once, and digested with 2-3 mL of trypsin for 2-3 min. After the cells were digested completely, 10-15 mL of cell culture was added to elute the digested cells. The eluate was centrifuged at 1000 rpm for 5 min, and the supernatant was discarded. The resulting cells were resuspended in 10-20 mL of cell culture to obtain a single cell suspension. • 3. Cell plating: the NCI-N87 single cell suspension was mixed well and adjusted to a viable cell density of 6×10^4 cells/mL with cell culture. The cell suspension with the adjusted density was mixed well and added to a 96-well cell culture plate at 50 μL/well. The culture plate was incubated in an incubator for 18 h (37° C., 5% CO2). • 4. Preparation of compounds: the compounds were dissolved in DMSO to obtain stock solutions at an initial concentration of 10 mM. There were 8 concentrations in total for the small molecule compounds: 300 nM, 100 nM, 30 nM, 10 nM, 3 nM, 1 nM, 0.3 nM, and 0.1 nM. • 5. Sample adding: the prepared samples to be detected at different concentrations were added to the culture plate, and two duplicate wells were set for each sample. The culture plate was incubated in an incubator for 6 days (37° C., 5% CO2). • 6. Color developing: the 96-well cell culture plate was taken out, added with the CTG reagent at 50 μL/well, and incubated at room temperature for 10 min. • 7. Plate reading: the 96-well cell culture plate was taken out, placed in a microplate reader, and measured for the chemiluminescence using the microplate reader. Data Analysis
(§3) Data were processed and analyzed using Microsoft Excel and Graphpad Prism 5.
(§4) To test the inhibitory activity of the pharmaceutical compounds on the in vitro proliferation of NCI-N87, JIMT-1 and MBA-MB-231 tumor cells. The cells were treated with compounds at different concentrations in vitro, and after 6 days of culture, the proliferation of cells was detected using CTG (CellTiter-Glo® Luminescent Cell Viability Assay, Promega, Cat. No. G7558) reagents, and the in vitro activity of the compounds was evaluated according to the IC50 value. • 1. Culturing of cells: NCI-N87/JIMT-1/MBA-MB-231 cells were cultured in RPMI-1640 medium containing 10% FBS. • 2. Preparation of cells: NCI-N87/JIMT-1/MBA-MB-231 cells in logarithmic phase were taken, washed with PBS once, and digested with 2-3 mL of trypsin for 2-3 min. After the cells were digested completely, 10-15 mL of cell culture was added to elute the digested cells. The eluate was centrifuged at 1000 rpm for 5 min, and the supernatant was discarded. The resulting cells were resuspended in 10-20 mL of cell culture to obtain a single cell suspension. • 3. Cell plating: the NCI-N87/JIMT-1/MBA-MB-231 single cell suspension was mixed well and adjusted to a viable cell density of 6×10^4 cells/mL with cell culture. […]

The test system of a further data set is NCI-N87 cells. Described as above. The format is cell-based. Particulars: Homo sapiens, NCI-N87, 144 h, read-out: NCI-N87 IC50 (nM). The method, then:
as §1, §2, §3, §4

A further data set addresses T1, P-gp (Homo sapiens, UniProt P08183).
T1 construct: endogenous in cells; host or cells: Caco-2
The experiment in a line: Study on transporter substrates in Caco-2 cell model. Format: in vitro ADME. Particulars: Caco-2 cell model. The protocol:
The resistance of each well was recorded. […] 2. […] The plate was vortexed for 10 min. The samples were centrifuged. […] HBSS was added to the basolateral compartment. […] 3. Data Analysis
Data were calculated using Microsoft Excel.

In the next data set the target is T2, BCRP (Homo sapiens, UniProt Q9UNQ0).
T2 sequence (Q9UNQ0 1-655): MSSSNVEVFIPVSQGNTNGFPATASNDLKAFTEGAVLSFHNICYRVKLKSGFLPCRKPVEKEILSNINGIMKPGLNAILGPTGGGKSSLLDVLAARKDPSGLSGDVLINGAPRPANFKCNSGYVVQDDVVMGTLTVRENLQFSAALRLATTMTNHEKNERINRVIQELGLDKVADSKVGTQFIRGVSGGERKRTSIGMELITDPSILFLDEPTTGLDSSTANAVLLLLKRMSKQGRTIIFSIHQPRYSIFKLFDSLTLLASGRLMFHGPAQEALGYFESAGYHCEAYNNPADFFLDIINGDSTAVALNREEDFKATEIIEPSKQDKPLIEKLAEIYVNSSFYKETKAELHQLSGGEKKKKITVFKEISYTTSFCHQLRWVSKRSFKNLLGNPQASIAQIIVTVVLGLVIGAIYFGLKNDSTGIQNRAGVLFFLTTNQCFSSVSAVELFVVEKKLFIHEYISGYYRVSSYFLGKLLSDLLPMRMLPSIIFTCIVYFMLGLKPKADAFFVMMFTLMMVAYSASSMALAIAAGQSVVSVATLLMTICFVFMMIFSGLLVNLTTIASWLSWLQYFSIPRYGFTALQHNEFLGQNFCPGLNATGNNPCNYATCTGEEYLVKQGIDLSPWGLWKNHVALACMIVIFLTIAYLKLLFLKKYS
The data set is described as above.

T1 sequence (P08183 whole entry): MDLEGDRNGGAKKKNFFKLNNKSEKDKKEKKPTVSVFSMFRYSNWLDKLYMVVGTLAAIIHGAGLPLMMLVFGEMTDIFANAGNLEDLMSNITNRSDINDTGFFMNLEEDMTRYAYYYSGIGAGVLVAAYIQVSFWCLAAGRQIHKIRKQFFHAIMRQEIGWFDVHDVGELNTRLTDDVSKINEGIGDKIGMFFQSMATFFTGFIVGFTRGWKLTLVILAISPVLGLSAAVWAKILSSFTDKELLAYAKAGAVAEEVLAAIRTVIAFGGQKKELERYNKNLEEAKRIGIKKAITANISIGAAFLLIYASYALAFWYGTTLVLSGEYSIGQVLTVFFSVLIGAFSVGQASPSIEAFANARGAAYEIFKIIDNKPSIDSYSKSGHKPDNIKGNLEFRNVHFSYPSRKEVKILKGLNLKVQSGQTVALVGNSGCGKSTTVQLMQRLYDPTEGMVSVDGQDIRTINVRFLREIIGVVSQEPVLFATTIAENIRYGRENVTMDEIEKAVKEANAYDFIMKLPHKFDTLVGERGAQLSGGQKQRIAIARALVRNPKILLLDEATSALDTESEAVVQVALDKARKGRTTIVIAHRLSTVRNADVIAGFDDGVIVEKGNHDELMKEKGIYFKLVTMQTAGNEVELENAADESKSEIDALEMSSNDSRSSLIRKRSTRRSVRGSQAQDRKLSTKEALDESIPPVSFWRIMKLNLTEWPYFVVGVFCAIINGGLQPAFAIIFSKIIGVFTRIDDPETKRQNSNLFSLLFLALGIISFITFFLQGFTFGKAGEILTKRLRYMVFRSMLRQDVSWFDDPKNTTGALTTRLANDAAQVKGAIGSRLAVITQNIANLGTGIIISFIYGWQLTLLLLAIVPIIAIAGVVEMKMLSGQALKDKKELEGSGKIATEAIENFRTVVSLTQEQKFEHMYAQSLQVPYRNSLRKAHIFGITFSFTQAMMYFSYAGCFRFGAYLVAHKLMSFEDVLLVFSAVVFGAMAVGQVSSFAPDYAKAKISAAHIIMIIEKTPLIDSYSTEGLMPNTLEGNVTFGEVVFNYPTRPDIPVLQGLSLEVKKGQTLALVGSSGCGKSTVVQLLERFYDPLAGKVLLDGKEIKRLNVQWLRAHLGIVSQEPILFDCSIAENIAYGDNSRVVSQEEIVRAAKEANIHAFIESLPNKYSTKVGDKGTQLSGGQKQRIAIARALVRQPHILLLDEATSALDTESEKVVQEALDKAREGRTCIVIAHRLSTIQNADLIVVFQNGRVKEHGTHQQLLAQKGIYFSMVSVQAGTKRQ
Protocol for BCRP: To investigate whether the compounds of the present invention is a substrate for efflux transporters P-gp and BCRP in a Caco-2 cell model, thereby providing preclinical basis for analyzing the drug-drug interaction in pharmacokinetics.
• 1) Cell culture medium was added to each well of the Transwell. The HTS Transwell plate was incubated under conditions of 37° C. and 5% CO2 for 1 h prior to cell inoculation. • 2) Caco-2 cells were diluted with culture medium and the cell suspension was dispensed into filter wells of the 96-well HTS Transwell plate. […] The cell culture medium was changed periodically. • 3) Monolayer cell resistance was measured using the Millicell Epithelial Volt-Ohm detection system. The resistance of each well was recorded. After all wells were measured, the Transwell plate was put back into the incubator. TEER of each well was calculated according to the formula. The TEER value of each well should be greater than 230 ohm·cm^2. […] Preparation for Transporter Test • 1) The Caco-2 plate was taken out from the incubator. The monolayer cells were washed with pre-heated HBSS twice. The plate was then incubated at 37° C. for 30 min. • 2) Stock solutions of the compounds were prepared in DMSO and diluted with HBSS to obtain working solutions. Digoxin was used as a reference substrate for P-gp and rosuvastatin was used as a reference substrate for BCRP. Propranolol was used as a high permeability marker. • 3) The working solution (without inhibitor) was added to the Transwell insert (apical compartment) to determine the rate of drug transport in the apical to basolateral direction. The transfer buffer was added to the wells in the receiver plate (basolateral compartment). The working solution (without inhibitor) was added to the receiver plate wells (basolateral compartment) to determine the rate of drug transport in the basolateral to apical direction. The Transwell insert (apical compartment) was filled with the transport buffer. PSC833 was added to the apical and basolateral compartments to determine the rate of drug transport in the presence of P-gp inhibitors. • 4) The sample was transferred from the working solution to the quenching solution, and a sample with a time of 0 was prepared. The Transwell plate was incubated under conditions of 37° C. and 5% CO2 for 2 h. • 5) At the end of the transport cycle, the samples were transferred from the apical and basolateral wells into a new 96-well plate. Cold acetonitrile or methanol containing the appropriate internal standard (IS) was added to each well of the plate. The plate was vortexed for 10 min. The samples were centrifuged. The supernatant of an aliquot was mixed with an appropriate amount of ultrapure water (depending on the LC-MS/MS signal response and peak shape) prior to the LC-MS/MS analysis. • 6) The stock solution of lucifer yellow in DMSO was prepared and diluted with HBSS to determine the amount of lucifer yellow leakage after a 2-hour transport period. The lucifer yellow solution was added to the apical compartment. HBSS was added to the basolateral compartment. The plate was incubated at 37° C. for 30 min, and a certain amount of the solution was directly taken from the apical and basolateral wells and transferred to a new 96-well plate. The lucifer yellow fluorescence was measured in a fluorescence plate reader with 485 nm excitation and 530 nm emission (to monitor monolayer integrity).
Data were calculated using Microsoft Excel. The percentage of the compound remaining at each time point was estimated by determining the peak area ratio from the extracted ion chromatogram.
For drug transport analysis in the Caco-2 cell model, the apparent permeability coefficient (Papp) can be calculated according to the following formula, in cm/s:
[formula] • wherein the concentration C is in nM, the volume V is in μL, the time T is in s, and the area S is in cm^2.
The recovery rate is calculated according to the following formula:

As a reminder, the IC50 is the concentration needed to halve the response being measured. Consider `CC[C@@]1(O)C(=O)OCc2c1cc1n(c2=O)Cc2c-1nc1cc(F)c(C)c3c1c2[C@@H](NC(=O)CCNC)CC3` [P-III-9, N-((1S,9S)-9-ethyl-5-fluoro-9-hydroxy-4-methyl-10,13-dioxo-2,3,9,10,13,15-hexahydro-1H,12H-benzo[de]pyrano[3′,4′:6,7]indolizino[1,2-b]quinolin-1-yl)-3-methylaminopropanamide], for which the IC50 with MDA-MB-231 cells amounted to 28.9 nM.
Still for that read-out and setting: then `CC[C@@]1(O)C(=O)OCc2c1cc1n(c2=O)Cc2c-1nc1cc(F)c(C)c3c1c2[C@@H](NC(=O)C[C@H](C)N)CC3` [P-III-28, (S)-3-amino-N-((1S,9S)-9-ethyl-5-fluoro-9-hydroxy-4-methyl-10,13-dioxo-2,3,9,10,13,15-hexahydro-1H,12H-benzo[de]pyrano[3′,4′:6,7]indolizino[1,2-b]quinolin-1-yl)butanamide], with 1.2 nM; and `CC[C@@]1(O)C(=O)OCc2c1cc1n(c2=O)Cc2c-1nc1cc(F)c(C)c3c1c2[C@@H](NC(=O)c1ccc(O)cc1)CC3` [P-II-23, N-((1S,9S)-9-ethyl-5-fluoro-9-hydroxy-4-methyl-10,13-dioxo-2,3,9,10,13,15-hexahydro-1H,12H-benzo[de]pyrano[3′,4′:6,7]indolizino[1,2-b]quinolin-1-yl)-4-hydroxybenzamide-1-carboxamide], with 7.7 nM.
Turning to `CC[C@@]1(O)C(=O)OCc2c1cc1n(c2=O)Cc2c-1nc1cc(F)c(C)c3c1c2[C@@H](NC(=O)CC(C)(C)O)CC3` [P-III-21, N-((1S,9S)-9-ethyl-5-fluoro-9-hydroxy-4-methyl-10,13-dioxo-2,3,9,10,13,15-hexahydro-1H,12H-benzo[de]pyrano[3′,4′:6,7]indolizino[1,2-b]quinolin-1-yl)-3-hydroxy-3-methylbutanamide], the IC50 was determined as 2.87 nM in the data set on JIMT-1 cells, 4.75 nM in the data set on NCI-N87 cells and 2.88 nM in the data set with MDA-MB-231 cells.
`CC[C@@]1(O)C(=O)OCc2c1cc1n(c2=O)Cc2c-1nc1cc(F)c(C)c3c1c2[C@@H](NC(=O)CO)CC3` [Dxd, reference compound]: on P-gp, the P-gp substrate entry is listed as “not a transporter P-gp substrate”. Further, at BCRP (Caco-2, KO143 +), the “Recovery rate (%) AP-BL” value was determined as 76.51% and the “Recovery rate (%) BL-AP” value came out at 74.87%. Moreover, at BCRP (Caco-2, KO143 −), the Efflux ratio is on record as 74.03, the “Recovery rate (%) AP-BL” value amounted to 57.76% and the “Recovery rate (%) BL-AP” value is on record as 56.20%. Also, on BCRP (Caco-2, KO143 −, 2 h), the “Papp (A-B) (10^−6, cm/s)” value was 0.07 10^−6, cm/s and the “Papp (B-A) (10^−6, cm/s)” value is listed as 4.82 10^−6, cm/s. Further, the BCRP substrate entry on BCRP (Caco-2 cell model, from rate of change of efflux ratio) was “transporter BCRP substrate and Yes”.
Turning to `CC[C@@]1(O)C(=O)OCc2c1cc1n(c2=O)Cc2c-1nc1cc(F)c(C)c3c1c2[C@@H](NC(=O)C[C@@H](N)CO)CC3` [P-III-29, (R)-3-amino-N-((1S,9S)-9-ethyl-5-fluoro-9-hydroxy-4-methyl-10,13-dioxo-2,3,9,10,13,15-hexahydro-1H,12H-benzo[de]pyrano[3′,4′:6,7]indolizino[1,2-b]quinolin-1-yl)-4-hydroxybutanamide], the IC50 in the data set on JIMT-1 cells is 16.7 nM; in the data set on MDA-MB-231 cells, 8.6 nM.
For `CC[C@@]1(O)C(=O)OCc2c1cc1n(c2=O)Cc2c-1nc1cc(F)c(C)c3c1c2[C@@H](NC(=O)c1ccc(O)cn1)CC3` [P-II-24, N-((1S,9S)-9-ethyl-5-fluoro-9-hydroxy-4-methyl-10,13-dioxo-2,3,9,10,13,15-hexahydro-1H,12H-benzo[de]pyrano[3′,4′:6,7]indolizino[1,2-b]quinolin-1-yl)-5-hydroxypicolinamide], the IC50 stood at 20.8 nM with JIMT-1 cells and 8.5 nM in the data set on MDA-MB-231 cells.
Consider `CC[C@@]1(O)C(=O)OCc2c1cc1n(c2=O)Cc2c-1nc1cc(F)c(C)c3c1c2[C@@H](NC(=O)CS)CC3` [P-III-1, N-((1S,9S)-9-ethyl-5-fluoro-9-hydroxy-4-methyl-10,13-dioxo-2,3,9,10,13,15-hexahydro-1H,12H-benzo[de]pyrano[3′,4′:6,7]indolizino[1,2-b]quinolin-1-yl)-2-mercaptoacetamide], for which the IC50 in the data set with MDA-MB-231 cells was determined as 28.9 nM.
